According to article PMC7115580 (European Journal of Medicinal Chemistry, 2017):

Biological target: S31N mutant M2 channel (Influenza A virus, UniProt P0DOF5, S31N)
Format: biochemical

| SMILES | Inhibition of S31N mutant M2 channel |
| --- | --- |
| CC1(C)N=C(N)N=C(N)N1c1ccc(Cl)cc1 [Compound 1, cycloguanil, reference compound] | neither of the three compounds significantly inhibited |
| CC1(C)N=C(N)N=C(N)N1c1cccc(C(F)(F)F)c1 [Compound 14] | neither of the three compounds significantly inhibited |
| CC1(C)N=C(N)N=C(N)N1c1ccc(Cl)c(Cl)c1 [Compound 16] | neither of the three compounds significantly inhibited |
